“Also recorded” adds a separate entry of the source. Counter-ions that a name gives are not always drawn.
How the values were obtained:
[1] = system: HeLa cells; experiment: Cell viability by trypan blue dye exclusion assay; assay type: cell-based; settings: FIG. 1A
Experimental: Cell culture: HeLa cells were cultured in Dulbecco's modified Eagle's medium supplemented with 10% fetal bovine serum and 50 μg/ml kanamycin at 37° C. in 5% CO2 in air.
Assay for apoptotic processes: Cell viability was determined by dye exclusion assay using 0.1% trypan blue. DNA fragmentation was analyzed as described previously (Kawauchi, K. et al. (1997) Biochem. Biophys. Res. Commun. 237, 543-547). In the caspase-3 assay, cells were disrupted by freeze-thaw in an extraction buffer (50 mM Tris-HCl, pH7.4, 1 mM EGTA, 5 mM EDTA, 5 mM MgCl2, 1 mM APMSF, 10 μg/ml pepstatin, 10 μg/ml leupeptin, and 1 mM DTT). Then the suspension was centrifuged at 15,000 rpm for 20 min, and the supernatants obtained were incubated at 37° C. for 60 min in a reaction buffer (50 mM Tris-HCl, pH7.4, 1 mM EDTA, 10 mM EGTA) with 20 μM of the fluorogenic substrate DEVD-AFC (Peptide Institute, Inc., Japan). Cleavage of the substrates was quantified by measuring the fluorescence of 7-amino-4-trifluomethyl coumarin released using a spectrofluorometer (Shimadzu RF5000) with excitation at 380 mn and emission at 460 nm.

[2] = system: NF-κB; experiment: NF-κB luciferase gene reporter assay (pIG3Luc) in HeLa cells; assay type: cell-based
From the text: The plasmids, pRKF-IKKα and pRKHA-IKKβ have been described previously (Oka, S., Kamata, H., Kamata, K., Yagisawa, H. and Hirata, H. (2000) FEBS Lett., 472, 196-202). pRKF-IKKαEE and pRK-HA-IKKβEE encode constitutively active mutants of IKKα, in which 176 and 180 serine residues in an activation loop are replaced by glutamic acid residues, and IKKβ, in, which 177 and 181 serine residues are replaced by glutamic acid residues, respectively. A reporter plasmid pIG3Luc for NF-κB encodes triple NF-κB binding site sequences (AGCTTCAGAGGGGACTRANSCRIPTIONCCGAGAGG) (SEQ ID NO: 2) followed by the luciferase gene. A control plasmid, pBKRLuc, was obtained from Toyobo (Toyo B-Net Co., Japan). pcDNAF-MEKK1, pRKF-p65, pEFBOSHA-Rac1-DA, and pEFBOSHA-Cdc42-DA, are the expression plasmids for MEKK1, the NF-κB subunit p65, constitutively active Rac1 and Cdc42, respectively.
(§1) Luciferase gene reporter assay and Kinase assays of IKK: HeLa cells were transfected with the reporter plasmids described above using Lipofectin (GIBCO BRL). After 24-48 hr, the luciferase activity was determined using the Luciferase Assay System (Promega). The kinase activity of IKKα and IKKβ were analyzed by immune complex kinase assay as described previously (Oka, S., Kamata, H., Kamata, K., Yagisawa, H. and Hirata, H. (2000) FEBS Lett. 472, 196-202). The substrates was using GST-IκBα(1-55) or GST-p65(399-551).
The gene expression induction by NF-κB activation plays the most important role among “life” signals by TNFα. Therefore, the NF-κB reporter gene was introduced into the cells to analyze the effect of cPrG-HCl by luciferase assay.
NF-κB is translocated into the nucleus also by activation with low-molecular-weight G proteins Rac1 and Cdc42 or MEKK1 and induces gene expression. An activated Rac1, Cdc42 or MEKK1 expression plasmid was introduced together with the NF-κB reporter gene into cells and the effect of cPrG-HCl on NF-κB activation was measured by luciferase assay (FIG. 4A and FIG. 4B).

[3] = molecular target: T1, IKK (Homo sapiens, UniProt O14920+O15111); experiment: IKK activation in stimulated cells (immune complex kinase assay); assay type: cell-based; settings: FIG. 2D
T1 construct: host or cells: HeLa cells (inferred)
T1 sequence (O15111 whole entry): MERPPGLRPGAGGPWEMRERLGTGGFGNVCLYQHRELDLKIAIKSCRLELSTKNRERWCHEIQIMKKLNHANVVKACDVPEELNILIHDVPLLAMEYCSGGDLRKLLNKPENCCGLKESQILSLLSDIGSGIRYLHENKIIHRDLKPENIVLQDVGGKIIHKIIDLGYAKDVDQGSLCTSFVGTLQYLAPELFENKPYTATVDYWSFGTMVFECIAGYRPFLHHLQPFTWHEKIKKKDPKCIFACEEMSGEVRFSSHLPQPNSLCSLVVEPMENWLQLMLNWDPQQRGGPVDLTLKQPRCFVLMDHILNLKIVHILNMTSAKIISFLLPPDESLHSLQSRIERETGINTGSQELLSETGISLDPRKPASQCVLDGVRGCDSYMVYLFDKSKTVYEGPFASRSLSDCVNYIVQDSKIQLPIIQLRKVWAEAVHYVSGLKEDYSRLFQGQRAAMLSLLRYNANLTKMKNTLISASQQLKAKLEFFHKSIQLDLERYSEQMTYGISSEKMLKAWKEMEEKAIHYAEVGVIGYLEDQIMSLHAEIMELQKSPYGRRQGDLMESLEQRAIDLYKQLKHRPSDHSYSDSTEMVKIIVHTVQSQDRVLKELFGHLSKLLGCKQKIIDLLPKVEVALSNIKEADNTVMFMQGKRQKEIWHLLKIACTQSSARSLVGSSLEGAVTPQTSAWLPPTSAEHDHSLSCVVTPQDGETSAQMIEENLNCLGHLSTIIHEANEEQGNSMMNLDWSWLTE
T1 sequence (O14920 whole entry): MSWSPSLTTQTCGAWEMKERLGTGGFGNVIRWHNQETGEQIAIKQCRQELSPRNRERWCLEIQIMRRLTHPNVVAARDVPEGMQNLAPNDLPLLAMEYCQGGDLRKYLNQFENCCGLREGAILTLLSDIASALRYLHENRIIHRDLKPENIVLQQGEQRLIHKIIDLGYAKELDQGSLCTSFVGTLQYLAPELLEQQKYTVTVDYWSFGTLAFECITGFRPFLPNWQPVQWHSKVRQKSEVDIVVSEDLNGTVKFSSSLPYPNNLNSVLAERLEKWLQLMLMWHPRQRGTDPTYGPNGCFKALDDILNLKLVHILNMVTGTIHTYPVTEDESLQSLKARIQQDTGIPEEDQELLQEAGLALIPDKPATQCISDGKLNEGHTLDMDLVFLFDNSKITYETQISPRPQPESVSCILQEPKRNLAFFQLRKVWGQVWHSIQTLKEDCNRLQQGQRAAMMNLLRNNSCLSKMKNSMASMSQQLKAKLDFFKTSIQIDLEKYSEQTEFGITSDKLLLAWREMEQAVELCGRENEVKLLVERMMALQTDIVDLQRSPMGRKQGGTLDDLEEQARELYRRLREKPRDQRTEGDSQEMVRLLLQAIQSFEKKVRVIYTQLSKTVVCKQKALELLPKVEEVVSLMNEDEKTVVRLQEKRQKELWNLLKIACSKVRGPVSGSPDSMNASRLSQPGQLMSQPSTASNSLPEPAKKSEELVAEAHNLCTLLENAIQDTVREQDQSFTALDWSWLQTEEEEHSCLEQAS
T1 sequence (Q9Y6K9 whole entry partner): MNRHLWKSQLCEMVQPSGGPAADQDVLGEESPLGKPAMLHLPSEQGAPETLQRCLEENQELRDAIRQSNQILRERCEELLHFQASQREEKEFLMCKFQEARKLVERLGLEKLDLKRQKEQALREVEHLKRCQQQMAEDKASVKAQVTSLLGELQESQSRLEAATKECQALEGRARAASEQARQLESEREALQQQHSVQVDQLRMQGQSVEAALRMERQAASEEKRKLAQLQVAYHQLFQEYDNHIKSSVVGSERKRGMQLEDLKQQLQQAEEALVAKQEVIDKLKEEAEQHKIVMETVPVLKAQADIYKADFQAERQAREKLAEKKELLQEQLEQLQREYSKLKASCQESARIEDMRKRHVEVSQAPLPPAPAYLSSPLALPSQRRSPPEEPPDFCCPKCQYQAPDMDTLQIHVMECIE
Experimental: as §1
In order to find out the mechanism of NF-κB suppression by cPrG-HCl, the effect on the signal transduction system, which functions upstream of NF-κB, was analyzed. First, the effect of cPrG-HCl on IKK activity was examined. […] Next, the effect of cPrG-HCl on phosphorylation and degradation of IκB was analyzed by Western blotting using anti-IκB antibody (FIG. 2E). In FIG. 2E, black arrows indicate IκBα and white arrows indicate phosphorylated IκBα. […] Namely, cPrG-HCl suppressed NF-κB activation without suppressing the steps up to IκB degradation. Accordingly, nuclear translocation of NF-κB was analyzed by Western blotting using p65 and p50 which are components of NF-κB (FIG. 2F). […] Further, the state of NF-κB activation in the nucleus was analyzed by EMSA (electrophoretic mobility shift assay) (FIG. 2G). In FIG. 2G, “n. s.” means nonspecific band.

[4] = system: JNK; experiment: JNK kinase activity after immune precipitation from HeLa cells; assay type: cell-based; settings: 1 μM, TNFα or PMA 15 minutes, FIG. 9A, hydrochloride
Experimental: HeLa cells were pretreated with cPrG-HCl (1 μM) for 1 hour and then stimulated with TNFα (20 ng/ml) or PMA (1 μg/ml) for 15 minutes, and JNK recovered by an immune precipitation method was then reacted with [γ-^32P]-ATP and a substrate GST-c-Jun, after which SDS-PAGE was carried out and the resulting gel was analyzed by an imaging analyzer. Further, HeLa cells were pretreated with cPrG-HCl (1 μM) for 1 hour and then stimulated with TNFα (20 ng/ml) for 15 minutes, a cell extract was recovered and subjected to SDS-PAGE and Western blotting was carried out using p38 phosphorylation antibody.

[5] = system: AP-1; experiment: AP-1 luciferase reporter assay in various kinds of cells; assay type: cell-based, human; African green monkey; settings: all the cells tested: U373, 293, COS7, MKN45; FIGS. 6A to 6F
Experimental: In order to find out whether the suppression of NF-κB and AP-1 activation was specific to HeLa cells used above, analysis was made with various kind of cells. The cells used were U373 cells (human brain tumor cells), 293 cells (human embryo-derived kidney cells), COS7 cells (African green monkey kidney-derived cells), and MKN45 cells (human gastric tumor cells).
The NF-κB reporter plasmid pIG3Luc was incorporated into cells by transfection. After 24 hours, the cells were pretreated with cPrG-HCl at a specified concentration for 1 hour and then stimulated with TNFα (20 ng/ml) or PMA (1 μg/ml) for 4 hours, after which luciferase activity was measured. Each activity was corrected for the amount of protein.

## COC1=CC(c2ccc[nH]2)=N/C1=C\c1[nH]c(C)c2c1C(C)CCC2 (centres unmarked) [cPrG-HCl, Cycloprodigiosin hydrochloride]
[1]; cPrG-HCl present upon TNFα stimulation
  cell viability: about 65%
[1]; cPrG-HCl treatment alone
  cell viability: slightly decreased
[2]
  NF-κB-dependent gene expression induced by IKKα: Suppresses
  NF-κB-dependent gene expression induced by IKKβ: Suppresses
  NF-κB-dependent gene expression induced by p65: Suppresses
[2]; FIG. 3A
  PMA-induced activation of NF-κB: Suppresses
[2]; HeLa cells, FIG. 2A, 2C, hydrochloride
  TNFα-induced NF-κB activation (gene expression induction, luciferase): inhibited; also recorded: concentration-dependently suppressed
[2]; MEKK1 expression plasmid with reporter gene, FIG. 4
  NF-κB activation induced by MEKK1: suppressed
[2]; activated Cdc42 expression plasmid with reporter gene, FIG. 4
  NF-κB activation induced by Cdc42: suppressed
[2]; activated Rac1 expression plasmid with reporter gene, FIG. 4
  NF-κB activation induced by Rac1: suppressed
[2]; in the presence of imidazole, FIG. 2C
  TNFα-induced NF-κB activation: suppressed
[3]
  TNFα-induced IKK activation: did not suppressed
[4]
  effect on JNK kinase: suppressed neither; also recorded: no suppression
[5]
  AP-1 transcriptional activation: suppressed

Reference: patent publication US20040048791A1, “Method for treating neoplastic cells using cycloprodigiosin or salt thereof” (priority 2002, published 2004)
